# Reference: patent US20040033517A1, “Compositions and methods relating to endothelial cell signaling using the protease activated receptor (PAR1)” (priority 2002, published 2004)
# Read-outs that look alike come from different tables or passages of the source. Ends that are not written are not given here.
# What was measured:
# [1] = systemically and locally induced sepsis models; Zisman 1997, Bone-Larson 2000; cited from earlier work
# [2] = tested on: human umbilical vein endothelial cells HUVEC-C; type: cell-based
# From the text: Microarray Analysis. […] Total RNA was isolated followed by reverse transcription. Purified double stranded cDNA was in vitro transcribed in the presence of biotinylated dUTP and dCTP, fragmented cRNA was hybridized to the HG-U95Av2 array (Affymetrix, Santa Clara, Calif.), followed by staining with streptavidin-phycoerythrin. Arrays were scanned and analyzed using GeneChip3.1 software. […] An average fold-induction for the three independent experiments was obtained by calculating the means of the logarithm of the individual fold-increases for each agonist.
# primary HUVEC = assay: TaqMan real-time RT-PCR of gene induction in primary HUVEC; type: cell-based, human; settings: primary endothelial cells, quantitative PCR, FIG. 3A
# Protocol: TaqMan Real Time PCR. For TaqMan (Applied Biosystems) real-time RT-PCR 4 μg total cellular RNA from stimulated primary HUVEC was reverse transcribed followed by RNAse treatment using the Superscript Kit (Invitrogen). TaqMan probes were custom designed for genes of interests. All samples were normalized with human GAPDH probes and primers obtained from Applied Biosystems.
# [3] = HUVEC-C, 90 min, genes represented in FIG. 2 A-C
# [4] = HUVEC-C, 90 min, higher variability, PAR1 enhanced (<1.3 fold with PAR2 agonist)
# [5] = HUVEC-C, 90 min, higher variability, PAR2 enhanced (<1.3 fold with PAR1 agonist)
# [6] = HUVEC-C, 90 min, higher variability, genes not induced by APC (<1.3 fold with APC)
substance,measurement,setting,value
"MCP-1: monocyte chemoattractant protein-1, chemokine administered in cited sepsis models",Effect of administration in sepsis models,[1],protective
TFLLRNPNDK [PAR1],"Average fold induction, AKAP12 U81607 A-KINASE ANCHOR PROTEIN 12, GRAVIN",[2],1.39 fold
same,"Average fold induction, BCL2A1 U27467 BCL2 RELATED PROTEIN A1, BFL-1",[2],2.04 fold
same,"Average fold induction, BIRC3 U45878 HUMAN INHIBITOR OF APOPTOSIS PROTEIN (IAP) 1",[2],2.39 fold
same,"Average fold induction, DUSP1 X68277 DUAL-SPECIFICITY PHOSPHATASE 1",[2],2.05 fold
same,"Average fold induction, DUSP5 U15932 DUAL-SPECIFICITY PHOSPHATASE 5",[2],2.93 fold
same,"Average fold induction, GADD45B AF078077 GROWTH ARREST- AND DNA DAMAGE-INDUCIBLE GENE GADD45, BETA",[2],1.26 fold
same,"Average fold induction, IER3 S81914 IMMEDIATE-EARLY RESPONSE 3",[2],1.30 fold
same,"Average fold induction, NAB1 AF045451 NGFIA-BINDING PROTEIN",[2],1.49 fold
same,"Average fold induction, NFKBIA M69043 NUCLEAR FACTOR OF KAPPA LIGHT CHAIN GENE ENHANCER IN B CELLS INHIBITOR, ALPHA",[2],1.38 fold
same,"Average fold induction, TNFAIP3 M59465 TUMOR NECROSIS FACTOR-ALPHA-INDUCED PROTEIN 3, A20",[2],1.39 fold
same,"Average fold induction, ZFP36 M92843 ZINC FINGER PROTEIN 36, TRISTETRAPROLIN (TTP)",[2],1.98 fold
same,"Average Induction, A1288757 qm11h01.x1 Homo sapiens cDNA",[2]; [3],1.8 fold
same,"Average Induction, A1670788 tz10c02.x1 Homo sapiens cDNA",[2]; [3],1.5 fold
same,"Average Induction, A1985272 ws06b05.x1 Homo sapiens cDNA",[2]; [3],1.3 fold
same,"Average Induction, A8022718 Homo sapiens m.RNA for DEPP (decidual protein induced by progesterone)",[2]; [3],1.3 fold
same,"Average Induction, AB004066 Homo sapiens mRNA for DEC1",[2]; [3],1.5 fold
same,"Average Induction, AB014569 Homo sapiens mRNA for K1AA0669 protein",[2]; [3],1.3 fold
same,"Average Induction, AF017786 Homo sapiens phosphatidic acid phosphohydrolase homolog (Dri42)",[2]; [3],1.6 fold
same,"Average Induction, AF022375 Homo sapiens vascular endothelial growth factor mRNA",[2]; [3],1.5 fold
same,"Average Induction, AF039843 Homo sapiens Sprouty 2 (SPRY2) mRNA",[2]; [3],1.6 fold
same,"Average Induction, AF045451 Homo sapiens transcriptional regulatory protein p54",[2]; [3],1.5 fold
same,"Average Induction, AF050110 Homo sapiens TGFb inducible early protein and early growth response protein alpha genes",[2]; [3],1.7 fold
same,"Average Induction, AF054182 Homo sapiens mitochondrial processing peptidase beta-subunit mRNA",[2]; [3],1.8 fold
same,"Average Induction, AF068197 Homo sapiens BCE-1 mRNA",[2]; [3],1.5 fold
same,"Average Induction, AF078077 Homo sapiens growth arrest and DNA-damage-inducible protein GADD45beta",[2]; [3],1.3 fold
same,"Average Induction, AJ005821 Homo sapiens mRNA for X-like 1 protein",[2]; [3],2.4 fold
same,"Average Induction, AL023584 Human DNA sequence from clone 67K17 on chromosome 6q24.1-24.3.",[2]; [3],1.8 fold
same,"Average Induction, AL031432 Human DNA sequence from clone 465N24 on chromosome 1p35.1-36.13.",[2]; [3],1.9 fold
same,"Average Induction, AL050078 Homo sapiens mRNA; cDNA DKFZp566G0746",[2]; [3],1.6 fold
same,"Average Induction, AL096858 Novel human gene mapping to chomosome 1",[2]; [3],1.3 fold
same,"Average Induction, Cluster Incl M22489 Human bone morphogenetic protein 2A (BMP-2A)",[2]; [3],2.4 fold
same,"Average Induction, Cluster Incl U12767 Human mitogen induced nuclear orphan receptor (MINOR)",[2]; [3],2.4 fold
same,"Average Induction, D15050 Human mRNA for transcription factor AREB6",[2]; [3],2.1 fold
same,"Average Induction, D50917 Human mRNA for KIAA0127 gene",[2]; [3],1.4 fold
same,"Average Induction, D78579 Homo sapiens mRNA for neuron derived orphan receptor",[2]; [3],2.6 fold
same,"Average Induction, D86181 Homo sapiens DNA for galactocerebrosidase",[2]; [3],1.9 fold
same,"Average Induction, Guanine Nucleotide Exchange Factor 2",[2]; [3],1.4 fold
same,"Average Induction, J02931 Human placental tissue factor (two forms) mRNA",[2]; [3],3.0 fold
same,"Average Induction, J04076 Human early growth response 2 protein (EGR2) mRNA",[2]; [3],2.0 fold
same,"Average Induction, J04111 Human c-jun proto oncogene (JUN)",[2]; [3],1.7 fold
same,"Average Induction, L05072 Homo sapiens interferon regulatory factor 1 gene",[2]; [3],1.9 fold
same,"Average Induction, L19871 Human activating transcription factor 3 (ATF3)",[2]; [3],2.5 fold
same,"Average Induction, L43821 Homo sapiens enhancer of filamentation (HEF1) mRNA",[2]; [3],1.4 fold
same,"Average Induction, M22489/FEATURE Human bone morphogenetic protein 2A (BMP-2A)",[2]; [3],2.3 fold
same,"Average Induction, M26683 Human interferon gamma treatment inducible mRNA",[2]; [3],1.6 fold
same,"Average Induction, M28211 Homo sapiens GTP-binding protein (RAB4) mRNA",[2]; [3],2.0 fold
same,"Average Induction, M28225 Human JE gene encoding a monocyte secretory protein [= MCP-1]",[2]; [3],2.1 fold
same,"Average Induction, M29039 Human transactivator (jun-B) gene",[2]; [3],2.8 fold
same,"Average Induction, M30474 Human kidney gamma-glutamyl transpeptidase type II mRNA",[2]; [3],2.7 fold
same,"Average Induction, M31516 Human decay-accelerating factor mRNA",[2]; [3],1.7 fold
same,"Average Induction, M36820 Human cytokine (GRO-beta) mRNA",[2]; [3],2.1 fold
same,"Average Induction, M59465 Human tumor necrosis factor alpha inducible protein A20 mRNA",[2]; [3],1.4 fold
same,"Average Induction, M60278 Human heparin-binding EGF-like growth factor mRNA",[2]; [3],3.6 fold
same,"Average Induction, M60721 Human homeobox gene",[2]; [3],2.8 fold
same,"Average Induction, M69043 Homo sapiens MAD-3 mRNA encoding 1kB-like activity",[2]; [3],1.4 fold
same,"Average Induction, M92843 H.sapiens zinc finger transcriptional regulator mRNA",[2]; [3],2.0 fold
same,"Average Induction, S81439 EGR alpha=early growth response gene alpha",[2]; [3],1.8 fold
same,"Average Induction, S81914 IEX-1=radiation-inducible immediate-early gene",[2]; [3],1.3 fold
same,"Average Induction, U04636 Human cyclooxygenase-2 (hCox-2) gene",[2]; [3],1.3 fold
same,"Average Induction, U07802 Human Tis1 1d gene",[2]; [3],1.5 fold
same,"Average Induction, U08015 Human NF-ATc mRNA",[2]; [3],1.4 fold
same,"Average Induction, U12767/FEATURE Human mitogen induced nuclear orphan receptor (MINOR)",[2]; [3],4.9 fold
same,"Average Induction, U15932 Human dual-specificity protein phosphatase",[2]; [3],2.9 fold
same,"Average Induction, U25997 Homo sapiens stanniocalcin precursor (STC) mRNA",[2]; [3],1.6 fold
same,"Average Induction, U43142 Human vascular endothelial growth factor related protein VRP",[2]; [3],1.4 fold
same,"Average Induction, U59863 Human TRAF-interacting protein I-TRAF mRNA",[2]; [3],1.3 fold
same,"Average Induction, U75697 Human transcription regulator RPD3-2B mRNA",[2]; [3],2.7 fold
same,"Average Induction, U79259 Human clone 23945 mRNA",[2]; [3],1.5 fold
same,"Average Induction, U81607 Homo sapiens gravin mRNA",[2]; [3],1.4 fold
same,"Average Induction, W27545 32c4 Homo sapiens cDNA",[2]; [3],1.2 fold
same,"Average Induction, X51345 Human jun-B mRNA for JUN-B protein",[2]; [3],1.8 fold
same,"Average Induction, X63741 H.sapiens pilot mRNA",[2]; [3],1.9 fold
same,"Average Induction, X68277 H.sapiens CL 100 mRNA for protein tyrosine phosphatase",[2]; [3],2.1 fold
same,"Average Induction, X75918 H.sapiens mRNA for NOT",[2]; [3],2.3 fold
same,"Average Induction, X89066 H.sapiens mRNA for TRPC1 protein",[2]; [3],2.6 fold
same,"Average Induction, X94216 H.sapiens mRNA for VEGF-C protein",[2]; [3],1.4 fold
same,"Average Induction, Y00630 Human mRNA for Arg-Serpin (plasminogen activator-inhibitor 2, PAI-2)",[2]; [3],2.2 fold
same,"Average Induction, Z25821 H.sapiens gene for mitochondrial dodecenoyl-CoA delta-isomerase",[2]; [3],1.1 fold
same,"Average Induction, Z48054 H.sapiens mRNA for peroxisomal targeting signal 1 (SKL type) receptor",[2]; [3],2.0 fold
same,"Average Induction, L13740 Human TR3 orphan receptor mRNA","[2]; HUVEC-C, 90 min, genes represented in FIG. 2 A-C, first probe set",4.8 fold
same,"Average Induction, L13740 Human TR3 orphan receptor mRNA","[2]; HUVEC-C, 90 min, genes represented in FIG. 2 A-C, second probe set",4.7 fold
same,"Average Induction, A1186701 qe82d12.x1 Homo sapiens cDNA",[2]; [4],1.9 fold
same,"Average Induction, A1953789 wx69d10.x1 Homo sapiens cDNA",[2]; [4],1.3 fold
same,"Average Induction, AF024710 Homo sapiens vascular endothelial growth factor (VEGF)",[2]; [4],1.4 fold
same,"Average Induction, AL035297 H.sapiens gene from PAC 747L4",[2]; [4],1.7 fold
same,"Average Induction, M22299 Human T-plastin polypeptide mRNA",[2]; [4],1.6 fold
same,"Average Induction, U35735 Human RACH1 (RACH1) mRNA",[2]; [4],1.8 fold
same,"Average Induction, U87460 Human putative endothelin receptor type B-like protein mRNA",[2]; [4],1.4 fold
same,"Average Induction, A1038821 ox96d03.x1 Homo sapiens cDNA",[2]; [5],1.2 fold
same,"Average Induction, AC004475 Homo sapiens chromosome 19, cosmid F23858",[2]; [5],1.2 fold
same,"Average Induction, AL049354 Homo sapiens mRNA; cDNA DKFZp566E183",[2]; [5],1.1 fold
same,"Average Induction, L38696 Homo sapiens autoantigen p542 mRNA",[2]; [5],1.0 fold
same,"Average Induction, U27655 Human RGP3 mRNA",[2]; [5],1.2 fold
same,"Average Induction, U53831 Homo sapiens interferon regulatory factor 7B",[2]; [5],1.1 fold
same,"Average Induction, U58334 Human Bcl2, p53 binding protein Bbp/53BP2 (BBP/53BP2) mRNA",[2]; [5],1.1 fold
same,"Average Induction, U65093 Human msg1-related gene 1 (mrg1) mRNA",[2]; [5],1.3 fold
same,"Average Induction, W26851 17b12 Homo sapiens cDNA",[2]; [5],1.2 fold
same,"Average Induction, Y13115 Homo sapiens mRNA for serine/threonine protein kinase SAK",[2]; [5],1.2 fold
same,"Average Induction, Z25821 H.sapiens gene for mitochondrial dodecenoyl-CoA delta-isomerase",[2]; [5],1.1 fold
same,"Average Induction, AB028069 Homo sapiens mRNA for activator of S phase Kinase",[2]; [6],2.0 fold
same,"Average Induction, D38537 Human mRNA for protoporphyrinogen oxidase",[2]; [6],1.3 fold
same,"Average Induction, M83667 Human NF-IL6-beta protein",[2]; [6],1.4 fold
same,"Average Induction, U78082 Human RNA polymerase transcriptional regulation mediator (h-MED6) mRNA",[2]; [6],1.9 fold
same,"Average Induction, U85267 Homo sapiens down syndrome candidate region 1 (DSCR1) gene",[2]; [6],1.6 fold
same,"Induction of the MCP-1 transcript (microarray, text)","[2]; endothelial cells, 90 minutes",only induced by the PAR1 agonist
same,"MCP-1 induction, time course",primary HUVEC,similarly induced
